According to article PMC8911971, “Detection of Bacterial α-L-Fucosidases with an Ortho-Quinone Methide-Based Probe and Mapping of the Probe-Protein Adducts” (Molecules, 2022):

How the values were obtained:
Assay type in all cases: biochemical
[1] = molecular target: T1, BfFucH (Bacteroides fragilis, UniProt Q5LAD6); assay: block of AH062 probe labelling, blot chemiluminescence; details: 100 uM inhibitor preincubated, 350 uM AH062, PBS pH 7.4; competitive
T1 construct: gene BF9343_3156; codon-optimized gene in pET47b+, expressed in E. coli BL21(DE3), Ni-NTA and Superdex 200 purified; about 50 kDa
T1 sequence (Q5LAD6 21-434): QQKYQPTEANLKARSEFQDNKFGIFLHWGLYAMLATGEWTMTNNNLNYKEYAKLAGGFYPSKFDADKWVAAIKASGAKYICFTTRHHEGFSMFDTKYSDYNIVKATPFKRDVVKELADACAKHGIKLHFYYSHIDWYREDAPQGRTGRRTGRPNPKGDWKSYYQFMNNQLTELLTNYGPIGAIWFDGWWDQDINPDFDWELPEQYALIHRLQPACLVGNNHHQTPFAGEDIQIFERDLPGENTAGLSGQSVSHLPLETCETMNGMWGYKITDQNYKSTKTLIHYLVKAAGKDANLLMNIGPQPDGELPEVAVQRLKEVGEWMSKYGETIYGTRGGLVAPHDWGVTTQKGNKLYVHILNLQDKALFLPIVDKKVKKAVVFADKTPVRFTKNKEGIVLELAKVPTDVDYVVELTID

[2] = molecular target: T2, AfcA (Bifidobacterium bifidum, UniProt Q6JV24); assay: probe labelling, click biotinylation, blot chemiluminescence; details: 350 uM probe, PBS pH 7.4, 37 C or room temperature (Figure 1); covalent after turnover to quinone methide
T2 construct: catalytic GH95 fragment, residues 577-1474, C-terminal GGSGGSHHHHHHHH tag; pMAL-c4x-1-H(RBS)+ in E. coli BL21(DE3), Ni-NTA and Superdex 200 purified

[3] = molecular target: T3, TmFuc (Thermotoga maritima, UniProt Q9WYE2); assay: pepsin digest LC-MS/MS of probe adducts; details: covalent after turnover to quinone methide; adducts at W80 or W105, outside the active site
T3 construct: gene TM_0306; recombinant, commercial (Megazyme)
T3 sequence (Q9WYE2 1-449): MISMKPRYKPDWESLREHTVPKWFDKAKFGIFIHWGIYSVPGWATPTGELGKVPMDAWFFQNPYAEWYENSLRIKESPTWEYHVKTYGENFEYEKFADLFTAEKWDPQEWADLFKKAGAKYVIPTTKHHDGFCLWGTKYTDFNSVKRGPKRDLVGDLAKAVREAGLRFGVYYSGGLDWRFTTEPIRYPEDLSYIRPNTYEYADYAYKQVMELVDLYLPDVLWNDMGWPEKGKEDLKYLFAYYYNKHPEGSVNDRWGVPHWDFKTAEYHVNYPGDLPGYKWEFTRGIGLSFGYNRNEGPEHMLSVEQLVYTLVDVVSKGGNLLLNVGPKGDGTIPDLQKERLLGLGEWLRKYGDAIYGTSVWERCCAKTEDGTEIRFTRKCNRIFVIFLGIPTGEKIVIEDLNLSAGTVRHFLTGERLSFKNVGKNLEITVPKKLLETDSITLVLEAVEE

T2 sequence (Q6JV24 entry or part of it): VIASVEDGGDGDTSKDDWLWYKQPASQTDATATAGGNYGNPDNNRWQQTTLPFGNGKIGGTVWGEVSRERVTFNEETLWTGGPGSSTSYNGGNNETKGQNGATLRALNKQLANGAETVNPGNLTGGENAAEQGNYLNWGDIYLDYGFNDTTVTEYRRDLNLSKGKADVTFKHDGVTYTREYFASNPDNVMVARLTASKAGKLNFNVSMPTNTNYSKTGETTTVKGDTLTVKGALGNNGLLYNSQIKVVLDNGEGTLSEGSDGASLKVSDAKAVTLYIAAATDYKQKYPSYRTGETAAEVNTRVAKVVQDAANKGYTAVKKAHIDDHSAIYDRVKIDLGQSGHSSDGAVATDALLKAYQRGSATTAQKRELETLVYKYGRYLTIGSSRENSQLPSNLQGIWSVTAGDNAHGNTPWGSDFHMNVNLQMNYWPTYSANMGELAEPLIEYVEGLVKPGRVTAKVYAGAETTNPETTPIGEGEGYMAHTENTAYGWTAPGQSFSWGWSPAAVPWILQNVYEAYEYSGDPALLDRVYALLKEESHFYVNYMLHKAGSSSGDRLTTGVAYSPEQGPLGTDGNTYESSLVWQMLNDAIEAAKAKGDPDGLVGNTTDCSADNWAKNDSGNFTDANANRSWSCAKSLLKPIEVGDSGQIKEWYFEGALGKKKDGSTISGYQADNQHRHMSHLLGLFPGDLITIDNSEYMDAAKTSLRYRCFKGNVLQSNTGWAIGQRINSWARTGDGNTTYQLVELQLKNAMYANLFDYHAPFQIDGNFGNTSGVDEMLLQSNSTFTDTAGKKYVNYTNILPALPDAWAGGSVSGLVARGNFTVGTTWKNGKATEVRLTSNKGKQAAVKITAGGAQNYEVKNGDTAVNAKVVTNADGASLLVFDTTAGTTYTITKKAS

| Compound | block of AH062 probe labelling, blot chemiluminescence [1] | probe labelling, click biotinylation, blot chemiluminescence [2] | pepsin digest LC-MS/MS of probe adducts [3] |
| --- | --- | --- | --- |
| C[C@@H]1NC[C@@H](O)[C@H](O)[C@@H]1O [L-fuconojirimycin] | distinguishing the active from the inhibited enzyme (prepared by preincubation with the competitive inhibitor L-fuconojirimycin | – | – |
| C[C@@H]1O[C@@H](Oc2ccc(NC(=O)CCOCCOCCOCCN=[N+]=[N-])cc2CF)[C@@H](O)[C@H](O)[C@@H]1O [compound 12, 3-(2-(2-(2-azidoethoxy)ethoxy)ethoxy)-N-(3-(fluoromethyl)-4-(((2S,3S,4R,5S,6S)-3,4,5-trihydroxy-6-methyltetrahydro-2H-pyran-2-yl)oxy)phenyl)propanamide] | – | the probe detected the enzyme in a concentration-dependent manner | the quinone methide generated from AH062 had labeled either tryptophan W80 or W105 |
